From US6881740B1, “Pharmaceutical agents” (Monash University, priority 1998, dated 2005) come the findings set out here.

For experiment [1], the target named is NMDA/polyamine sites (polyamine-sensitive [3H]-ifenprodil binding, rat cerebral cortex membranes) (Rattus norvegicus, UniProt P35439+Q00960). In words: NMDA/polyamine site [3H]-ifenprodil binding assay. The note with it: [3H]-ifenprodil 4 nM, rat cerebral cortex homogenate. The text has this:
Ifenprodil and eliprodil have been reported as antiischaemic agents (Gotti et al., 1988) and both compounds have been reported to associate with the polyamine sensitive site of the NMDA receptor complex (Carter et al., 1989 and 1990; Reynolds et al., 1989; and Robinson et al., 1990). […] These agents bind independently of the NMDA ion channel (Carter et al., 1991; Reynolds et al., 1989), appear not to cause behavioural effects (Carter et al., 1991), and may target specific heteromeric NMDA receptors (Williams, 1993; Nicola et al., 1994) uniquely distributed in forebrain regions (Standaert et al., 1994) affected in ischaemia and head trauma. […] Accordingly, compounds of the present invention are capable of binding to the NMDA receptor complex and providing a neuroprotective effect, or otherwise providing benefit in other conditions related to NMDA receptors.
Briefly, crude membrane suspensions containing 10% rat cerebral cortex were prepared in aqueous 50 mM Tris-HCl buffer (pH 7.4, 4° C.), using a Polytron homogeniser.
Nonspecific binding was determined using spermine (10 μM).
The sigma receptor ligand 3PPP(+)-3-(3-hydroxyphenyl)-N-propyl-piperidine (100 μM) was included in all tubes to block binding to sigma receptors. […] Filterpapers were collected, combined with scintillant and bound radioactivity determined using a Packard Scintillation counter.

In experiment [2] the test system is murine neocortical neurones. In words: NMDA-induced toxicity in neuronal cultures (MTT assay). The class given is cell-based. The note with it: Mus musculus, NMDA 600 μM, 1 h, compound added 30 min prior, cultures at 8 days in vitro, read-out: EC50 for inhibition of NMDA-induced toxicity. As for the experimental part:
Assay for NMDA-induced Toxicity in Neuronal Cultures
Neuronal cell death was assessed using a 3-(4,5-dimethylthiazol-2-yl)-2,5-diphenyltetrazoliurn bromide (MTT) assay in which NMDA-induced cellular changes are reflected as altered mitochondrial activity (Ankarcrona et al., 1995), as estimated by the formation of a formazan dye, which is measured spectrophotometrically. The procedure employed is essentially that of Roehlm et al. (1991) with minor modifications as previously described elsewhere in work from our laboratories Larm et al. (1996).
Primary cultures of murine neocortical neurones were established as described elsewhere (Larm et al., 1996). The effects of experimental compounds were tested in the cultures at 8 days in vitro. Exposure to NMDA (600 μM, 1 h) and other compounds was performed in an humidified incubator (5% CO2, 8% O2) at 37° C. in anti-oxidant free medium with compounds under evaluation being added 30 min prior to NMDA. For these conditions the culture medium was modified by omitting the following components: D,L- -tocopherol, D,L- -tocopherol acetate, catalase, superoxide dismutase and L-glutamine. Other details are described in Larm et al. (1996). Absorbence was read at 570 nm using a Ceres UV900 microplate reader. Control cultures were included in each experiment containing either vehicle alone or vehicle plus compound. […]

Experiment [3] deals with cultured cerebellar granule cells. Put plainly: Veratridine induced toxicity in neuronal cultures (MTT assay). The conditions noted are these: Mus musculus.
Description: Veratridine Induced Toxicity in Neuronal Cultures
The cells were pre-incubated with drug for 30 minutes prior to a 60 minute exposure to veratridine (100 μM). Drug remained in the medium during exposure to veratridine. Cell viability was assessed at 18 hours by MTT assay.

NMDA/polyamine sites (polyamine-sensitive [3H]-ifenprodil binding, rat cerebral cortex membranes), sequence (Q00960 27-1482, other chains not shown): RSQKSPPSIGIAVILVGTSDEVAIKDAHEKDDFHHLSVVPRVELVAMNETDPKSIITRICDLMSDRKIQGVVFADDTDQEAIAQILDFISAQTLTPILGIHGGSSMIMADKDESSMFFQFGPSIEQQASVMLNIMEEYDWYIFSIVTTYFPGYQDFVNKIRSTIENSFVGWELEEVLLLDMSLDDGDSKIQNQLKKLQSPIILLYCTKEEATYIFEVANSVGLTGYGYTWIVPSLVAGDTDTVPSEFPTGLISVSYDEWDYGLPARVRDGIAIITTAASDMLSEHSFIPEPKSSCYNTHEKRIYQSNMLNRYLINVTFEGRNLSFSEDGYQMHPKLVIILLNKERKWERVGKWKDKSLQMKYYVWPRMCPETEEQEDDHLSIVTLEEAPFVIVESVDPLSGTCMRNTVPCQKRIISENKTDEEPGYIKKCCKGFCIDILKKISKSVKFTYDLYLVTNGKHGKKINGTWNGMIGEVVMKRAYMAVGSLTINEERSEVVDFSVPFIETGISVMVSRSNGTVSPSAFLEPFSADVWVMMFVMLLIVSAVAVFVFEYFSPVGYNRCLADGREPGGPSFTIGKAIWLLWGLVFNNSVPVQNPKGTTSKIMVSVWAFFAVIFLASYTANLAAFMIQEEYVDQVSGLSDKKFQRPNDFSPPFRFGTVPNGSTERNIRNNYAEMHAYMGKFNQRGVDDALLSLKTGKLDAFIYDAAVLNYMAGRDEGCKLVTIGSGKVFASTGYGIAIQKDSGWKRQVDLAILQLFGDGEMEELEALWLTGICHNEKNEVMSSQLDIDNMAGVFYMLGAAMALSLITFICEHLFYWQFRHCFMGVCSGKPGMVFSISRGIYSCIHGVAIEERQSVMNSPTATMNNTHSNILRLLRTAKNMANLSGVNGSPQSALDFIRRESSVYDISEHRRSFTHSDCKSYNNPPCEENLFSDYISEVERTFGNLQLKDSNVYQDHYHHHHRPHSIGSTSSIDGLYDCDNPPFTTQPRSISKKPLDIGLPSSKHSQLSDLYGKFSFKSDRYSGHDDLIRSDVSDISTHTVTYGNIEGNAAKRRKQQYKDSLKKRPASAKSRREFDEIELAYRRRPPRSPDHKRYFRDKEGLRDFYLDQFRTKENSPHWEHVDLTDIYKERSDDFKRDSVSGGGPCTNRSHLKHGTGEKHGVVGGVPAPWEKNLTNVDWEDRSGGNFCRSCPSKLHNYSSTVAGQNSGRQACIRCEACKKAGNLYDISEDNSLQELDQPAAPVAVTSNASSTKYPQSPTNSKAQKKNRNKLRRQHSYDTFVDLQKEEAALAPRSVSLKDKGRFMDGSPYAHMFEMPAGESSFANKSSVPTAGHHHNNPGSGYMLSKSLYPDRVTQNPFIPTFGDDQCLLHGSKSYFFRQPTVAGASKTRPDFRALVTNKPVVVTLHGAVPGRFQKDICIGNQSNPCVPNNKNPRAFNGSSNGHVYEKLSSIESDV

`OC(Cc1cc(N2CCCC2)nc(N2CCCC2)n1)c1cccc(OC(F)(F)F)c1` (stereo not shown) [Compound 17, 6-[2-hydroxy-2-(3-trifluoromethoxyphenyl)ethyl]-2,4-di-N-pyrrolidinylpyrimidine] came in with an IC50 in experiment [1] (2 h at 4° C., 3PPP 100 μM to block sigma sites) of 4.33 ± 1.56 µM. The compound further displayed a Ki in experiment [1] (competition curves analysed with Radlig) of 1.4 ± 0.047 µM. For the same compound, the EC50 in experiment [2] and in experiment [3] was 1.7 µM throughout.
